Measured values from article PMC3089467 (Nucleic Acids Research, 2011).

Biological target: T1, HhaI DNA cytosine-5 methyltransferase (M.HhaI) (Haemophilus parahaemolyticus, UniProt P05102)
T1 sequence (P05102 1-327): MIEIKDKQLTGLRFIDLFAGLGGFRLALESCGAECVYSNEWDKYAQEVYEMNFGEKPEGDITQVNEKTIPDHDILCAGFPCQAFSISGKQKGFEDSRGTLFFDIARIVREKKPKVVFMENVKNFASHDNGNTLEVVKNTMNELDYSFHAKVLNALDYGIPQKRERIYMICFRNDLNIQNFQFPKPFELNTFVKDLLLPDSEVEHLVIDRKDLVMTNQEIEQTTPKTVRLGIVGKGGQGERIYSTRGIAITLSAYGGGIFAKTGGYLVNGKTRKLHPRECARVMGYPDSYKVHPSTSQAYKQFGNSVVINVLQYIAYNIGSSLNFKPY
Assay: stopped-flow absorbance, ternary complex with DNA
Format: binding
Settings: 100 µM AdoHcy; cognate GCGC/GMGC duplex; pH 7.4, 25 °C

Nc1ncnc2c1ncn2[C@@H]1O[C@H](CSCC[C@H](N)C(=O)O)[C@@H](O)[C@H]1O [AdoHcy]
stopped-flow absorbance, ternary complex with DNA: The remaining signal is regained upon addition of AdoHcy to the preformed M.HhaI–DNA complex
